# In patent US9603364B2 (Dow AgroSciences LLC, priority 2013, dated 2017):
# Experiments:
# Assay in all cases: General post-emergent herbicidal activity, foliar application
# Type in all cases: in vivo
# [1] = tested on: Amaranthus retroflexus L. (pigweed, redroot); details: for pest or weed control at 280 g/ha: 280 g ai/ha; for pest or weed control at 140 g/ha: 140 g ai/ha; for GR80 Value AMARE: calculated by probit analysis, dose for 80% visual injury, may be extrapolated
# Summary of the method: (§1)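 Compounds in acetone/DMSO (97:3) were diluted into aqueous spray containing isopropyl alcohol, Atplus 411F crop oil and Triton X-155, then applied post-emergence to foliage at a top rate plus 1/2× to 1/16× serial dilutions. Injury was scored visually (0–100%) after 14 days in a sub-irrigated greenhouse versus untreated plants. GR20/GR50/GR80 were derived by probit analysis, with some GR80 values extrapolated from curve slope.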
# [2] = tested on: Chenopodium album L. (lambsquarters, common); details: for pest or weed control at 280 g/ha: 280 g ai/ha; for pest or weed control at 140 g/ha: 140 g ai/ha; for GR80 Value CHEAL: calculated by probit analysis, dose for 80% visual injury, may be extrapolated
# Summary of the method: as §1
# [3] = tested on: Echinochloa crus-galli (L.) Beauv. (barnyardgrass); details: for pest or weed control at 280 g/ha: 280 g ai/ha; for pest or weed control at 140 g/ha: 140 g ai/ha; for GR80 Value ECHCG: calculated by probit analysis, dose for 80% visual injury, may be extrapolated
# Summary of the method: as §1
# [4] = tested on: Euphorbia heterophylla L. (poinsettia, wild); details: for pest or weed control at 280 g/ha: 280 g ai/ha; for pest or weed control at 140 g/ha: 140 g ai/ha; for GR80 Value EPHHL: calculated by probit analysis, dose for 80% visual injury, may be extrapolated
# Summary of the method: as §1
# [5] = tested on: Helianthus annuus L. (sunflower, common); details: for pest or weed control at 280 g/ha: 280 g ai/ha; for pest or weed control at 140 g/ha: 140 g ai/ha; for GR80 Value HELAN: calculated by probit analysis, dose for 80% visual injury, may be extrapolated
# Summary of the method: as §1
# [6] = tested on: Viola tricolor L. (pansy); details: for pest or weed control at 280 g/ha: 280 g ai/ha; for pest or weed control at 140 g/ha: 140 g ai/ha; for GR80 Value VIOTR: calculated by probit analysis, dose for 80% visual injury, may be extrapolated
# Summary of the method: as §1
# Oryza sativa L. (rice) = details: Oryza sativa, 336 h, scored after 14 days, read-out: % Visual Growth Reduction ORYSA; for plant injury at 280 g/ha: 280 g ai/ha; for plant injury at 140 g/ha: 140 g ai/ha
# Summary of the method: (§2)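 Injury rated visually 14 days after treatment on a 0 (none) to 100% (complete kill) scale against untreated plants; greenhouse-grown, sub-irrigated to avoid wash-off. Foliar spray in aqueous acetone/DMSO with isopropanol, crop oil concentrate and Triton X-155, at a highest rate and 2-fold serial dilutions down to 1/16×.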
# Zea mays L. (corn) = details: 336 h, scored after 14 days, read-out: % Visual Growth Reduction ZEAMX; for plant injury at 280 g/ha: 280 g ai/ha; for plant injury at 140 g/ha: 140 g ai/ha
# Summary of the method: as §2
# [7] = Amaranthus retroflexus, 336 h, foliar post-emergent, scored after 14 days, read-out: % Visual Growth Reduction AMARE
# [8] = Chenopodium album, 336 h, foliar post-emergent, scored after 14 days, read-out: % Visual Growth Reduction CHEAL
# [9] = Echinochloa crus-galli, 336 h, foliar post-emergent, scored after 14 days, read-out: % Visual Growth Reduction ECHCG
# [10] = Euphorbia heterophylla, 336 h, foliar post-emergent, scored after 14 days, read-out: % Visual Growth Reduction EPHHL
# [11] = Helianthus annuus, 336 h, foliar post-emergent, scored after 14 days, read-out: % Visual Growth Reduction HELAN
# [12] = Viola tricolor, 336 h, foliar post-emergent, scored after 14 days, read-out: % Visual Growth Reduction VIOTR
Compound,"pest or weed control at 280 g/ha [1, 7] [%]","pest or weed control at 280 g/ha [2, 8] [%]","pest or weed control at 280 g/ha [3, 9] [%]","pest or weed control at 280 g/ha [4, 10] [%]","pest or weed control at 280 g/ha [5, 11] [%]","pest or weed control at 280 g/ha [6, 12] [%]",plant injury at 280 g/ha (Oryza sativa L. (rice)) [%],plant injury at 280 g/ha (Zea mays L. (corn)) [%],"pest or weed control at 140 g/ha [1, 7] [%]","pest or weed control at 140 g/ha [2, 8] [%]","pest or weed control at 140 g/ha [3, 9] [%]","pest or weed control at 140 g/ha [4, 10] [%]","pest or weed control at 140 g/ha [5, 11] [%]","pest or weed control at 140 g/ha [6, 12] [%]",plant injury at 140 g/ha (Oryza sativa L. (rice)) [%],plant injury at 140 g/ha (Zea mays L. (corn)) [%],GR80 Value AMARE [1] [g ai/ha],GR80 Value CHEAL [2] [g ai/ha],GR80 Value ECHCG [3] [g ai/ha],GR80 Value EPHHL [4] [g ai/ha],other results
"COC(=O)c1nc(CCl)c(F)c(N)c1Cl [Compound F21, Methyl 4-amino-3-chloro-6-(chloromethyl)-5-fluoropicolinate]",0,0,0,0,0,0,0,0,–,–,–,–,–,–,–,–,–,–,–,–,–
"C=C(F)c1nc(C(=O)OC)c(Cl)c(N)c1F [Compound F22, methyl 4-amino-3-chloro-5-fluoro-6-(1-fluorovinyl)picolinate]",90,90,0,60,80,10,0,0,90,90,0,50,80,10,0,0,–,–,–,–,–
"CC(F)c1cc(N)c(Cl)c(C(=O)O)n1 (stereo not drawn) [Compound F24, 4-Amino-3-chloro-6-(1-fluoroethyl)picolinic acid]",100,100,90,95,80,100,10,10,100,100,80,90,75,100,0,0,12.3,<17.5,165,122,"pest or weed control at 35 g/ha ([1]; Amaranthus retroflexus, 336 h, 35 g ai/ha, foliar post-emergent, scored after 14 days, read-out: % Visual Growth Reduction AMARE): 90%; pest or weed control at 70 g/ha ([1]; Amaranthus retroflexus, 336 h, 70 g ai/ha, foliar post-emergent, scored after 14 days, read-out: % Visual Growth Reduction AMARE): 100%; pest or weed control at 35 g/ha ([2]; Chenopodium album, 336 h, 35 g ai/ha, foliar post-emergent, scored after 14 days, read-out: % Visual Growth Reduction CHEAL): 100%; pest or weed control at 70 g/ha ([2]; Chenopodium album, 336 h, 70 g ai/ha, foliar post-emergent, scored after 14 days, read-out: % Visual Growth Reduction CHEAL): 100%; pest or weed control at 35 g/ha ([3]; Echinochloa crus-galli, 336 h, 35 g ai/ha, foliar post-emergent, scored after 14 days, read-out: % Visual Growth Reduction ECHCG): 0%; pest or weed control at 70 g/ha ([3]; Echinochloa crus-galli, 336 h, 70 g ai/ha, foliar post-emergent, scored after 14 days, read-out: % Visual Growth Reduction ECHCG): 55%; pest or weed control at 35 g/ha ([4]; Euphorbia heterophylla, 336 h, 35 g ai/ha, foliar post-emergent, scored after 14 days, read-out: % Visual Growth Reduction EPHHL): 5%; pest or weed control at 70 g/ha ([4]; Euphorbia heterophylla, 336 h, 70 g ai/ha, foliar post-emergent, scored after 14 days, read-out: % Visual Growth Reduction EPHHL): 80%; pest or weed control at 35 g/ha ([5]; Helianthus annuus, 336 h, 35 g ai/ha, foliar post-emergent, scored after 14 days, read-out: % Visual Growth Reduction HELAN): 50%; pest or weed control at 70 g/ha ([5]; Helianthus annuus, 336 h, 70 g ai/ha, foliar post-emergent, scored after 14 days, read-out: % Visual Growth Reduction HELAN): 65%; GR80 Value HELAN [5]: 199 g ai/ha; pest or weed control at 35 g/ha ([6]; Viola tricolor, 336 h, 35 g ai/ha, foliar post-emergent, scored after 14 days, read-out: % Visual Growth Reduction VIOTR): 85%; pest or weed control at 70 g/ha ([6]; Viola tricolor, 336 h, 70 g ai/ha, foliar post-emergent, scored after 14 days, read-out: % Visual Growth Reduction VIOTR): 100%; GR80 Value VIOTR [6]: 36.7 g ai/ha; plant injury at 35 g/ha (Oryza sativa L. (rice); 35 g ai/ha): 0%; plant injury at 70 g/ha (Oryza sativa L. (rice); 70 g ai/ha): 0%; plant injury at 35 g/ha (Zea mays L. (corn); 35 g ai/ha): 0%; plant injury at 70 g/ha (Zea mays L. (corn); 70 g ai/ha): 0%"
"Nc1c(Cl)c(CF)nc(C(=O)O)c1Cl [Compound F25, 4-Amino-3,5-dichloro-6-(fluoromethyl)picolinic acid]",85,80,50,100,90,0,0,0,80,80,0,100,80,0,0,0,180,176,373,<17.5,GR80 Value HELAN [5]: 146 g ai/ha; GR80 Value VIOTR [6]: >280 g ai/ha
